Test results: article PMC4976923, “Potent Allosteric Dengue Virus NS5 Polymerase Inhibitors: Mechanism of Action and Resistance Profiling” (PLoS Pathogens, 2016)

Assays:
[1] = test system: clinical DENV2 isolate MY97-10340; conditions: A549, 48 hr, read-out: DENV2 HCI, EC50 (converted); cited from earlier work
[2] = test system: DENV4, strain MY01-22713; conditions: A549; 48 hr; read-out: DENV4 HCI, EC50 (converted); cited from earlier work
[3] = biological target: T1, DENV2 FL NS5 WT (Dengue virus type 2, UniProt P14340); assay type: binding; conditions: 50 µM compound; for Protein melting temperature, Tm, DENV2 FL NS5 WT: DMSO 35.5
T1 construct: compared against activities of WT DENV2 or DENV4 FL NS5 proteins; made in house

[4] = test system: DENV2-NGC EGFP Replicon in BHK21; assay: Stable BHK21 DENV2-NGC EGFP replicon assay; assay type: cell-based; conditions: Dengue virus, DENV2, BHK-21; 48 hr
[5] = biological target: DENV4 RdRp domain (aa 268–900) (Dengue virus type 4, UniProt P09866); assay: Thermo-denaturation assay, recombinant RdRp domain; assay type: binding; conditions: +50 μM compound; DMSO control 50
Chain of DENV4 RdRp domain (aa 268–900) (P09866 2753-3387): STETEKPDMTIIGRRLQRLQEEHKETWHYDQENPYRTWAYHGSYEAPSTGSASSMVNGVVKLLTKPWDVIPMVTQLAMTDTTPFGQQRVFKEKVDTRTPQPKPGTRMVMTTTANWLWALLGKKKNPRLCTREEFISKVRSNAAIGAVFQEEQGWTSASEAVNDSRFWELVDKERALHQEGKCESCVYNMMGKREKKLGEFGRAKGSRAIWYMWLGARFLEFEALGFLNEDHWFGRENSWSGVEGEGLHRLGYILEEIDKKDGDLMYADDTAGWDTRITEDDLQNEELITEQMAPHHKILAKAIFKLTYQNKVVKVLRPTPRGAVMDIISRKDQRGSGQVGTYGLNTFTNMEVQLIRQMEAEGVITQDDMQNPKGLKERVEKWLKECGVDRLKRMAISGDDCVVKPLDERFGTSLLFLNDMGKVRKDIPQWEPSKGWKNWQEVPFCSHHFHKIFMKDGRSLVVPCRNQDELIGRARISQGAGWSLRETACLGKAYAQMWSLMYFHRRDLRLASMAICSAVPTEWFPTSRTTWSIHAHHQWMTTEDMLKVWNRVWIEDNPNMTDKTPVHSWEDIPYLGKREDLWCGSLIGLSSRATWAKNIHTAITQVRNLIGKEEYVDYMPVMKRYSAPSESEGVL
Experimental: Site-directed alanine mutations of DENV4 FL NS5 cDNA were performed using pET28-D4-MY01-22713 NS5FL [23] as a template, according to the manufacturer’s protocol (Stratagene, USA). Protein expressions of DENV1-4 FL NS5 and their stability analyses by thermo-fluorescence were performed as described previously. DENV de novo initiation and elongation FAPA assays were earlier described. […]
6 Fi g .5. Ef fects of N -pocket compounds on DENV pol ymerase thermo-stability. Melting
7 temperatur e (Tm) w as ass essed b y thermo-d enatur ation in presence of the S YPRO Oran ge
8 dye as described in Materials and Methods. (A-F) Representative meltin g curves of DEN V4
10 inhibitors or 5 % DMSO control. […]
16 controls treated with DMSO.

[6] = test system: HCV replicon; assay: HCV replicon firefly luciferase assay; assay type: cell-based, hepatitis C virus (HCV) genotype 1b; conditions: Hepatitis C virus; HuH-7; 48 hr; tested up to 25 μM
Experimental: A549, BHK-21 and Huh7 cells bearing stable DENV2 sub-genomic replicon or transiently electroporated DENV2-NGC replicon or infectious virus cDNAs were seeded into 384-well microplate (3,000 cells per well). After over-night incubation at 37°C with 5% CO2, the cells were treated with 2-fold serially diluted compounds, starting from 20 or 50 μM. At 48 hr of post-incubation, renilla luciferase activities were measured with the ViviRen live-cell substrate (Promega, USA) according to the manufacturer’s protocol. CellTiter-Glo reagent (Promega, USA) was then added to determine cytotoxic effects of compounds. For the HCV replicon assay, Huh-7.5 cells harboring the HCV replicon were seeded into a 96-well microplate (20,000 cells per well). At 48 hr after compound treatment, cells were assayed for firefly luciferase activity by using a Bright-Glo luciferase assay (Promega, USA). NITD-008, a nucleoside inhibitor of DENV and HCV was added as a control.
1 containing 2 % FBS, 1mM L-glutamine and 1 % penicillin-streptom ycin and incubated over-
At 24 h post-seeding, cells were inf ected with DENV1-4 at […]
8 DENV envelope protein ) and DRAQ5 (for nucl ear DNA) . Quantifications of DENV
9 envelope protein were determined using the Opera high content imaging s ystem and anal ysis […]
17 µM concentrations. At 48 hr of post-incubation, r enilla luciferas e activities were measured […]

[7] = test system: WNV (New York strain 3356) replicon; assay: WNV replicon cell-based assay; conditions: 0–50 μM, 2 days
Experimental: (§1) 4 Compound testing in cells transiently expressing DENV and WNV replicon. R enilla
(§2) 5 luciferas e sub-genomic replicon of DENV2 (strai n New Guinea C) or WN V (New York
(§3) 6 strain 3356) cloned into the pACYC plasmid, was in vitro transcribed using a T7 mMessage
(§4) 7 mMachine kit (Ambion, Austin, TX) after linearization with ClaI, as descri bed previousl y
(§5) 8 [5]. A549 cells were electroporated with 10 μg of replicon RNA using a GenePulser Xcell
(§6) 9 system (Bio-Rad, H ercul es, CA) with 3 pulses, at 450 V, 25 µF, at 5- 10 sec intervals.
(§7) 10 Transfected cells wer e seeded into a 96-w ell plate at 1.5 × 10^4 cells per well, followed b y
(§8) 11 treatment with the compound or the dimethyl sulfoxide (DMSO) control and incubation at
(§9) 12 37°C in 5 % CO2. At various time points post-transfection, cells were w ash ed once with
(§10) 13 phosphate-buffered saline (PBS) and l ysed in 20 μl 1× l ysis buffer (Promega, USA) and
(§11) 14 assa yed fo r luciferase si gnals with a Clarit y luminescence microplate reader (BioT ek, USA)
(§12) 15 using the renilla luciferase assa y s ystem (Promega, USA). CellTiter -Glo reagent was added to
(§13) 16 the l ysates to determine t he c ytotoxicit y effects of compounds.Duplicate w ells were seeded
WNV ( New York strain 3356) replicon cDNA was electropo rated in BHK -21 cells, […]
4 from replicon cells were determined b y measuring cellular renilla luciferase levels. […]
5 points were measured in duplicates.

[8] = biological target: T2, DENV4 FL NS5 Q802N (Dengue virus type 4, UniProt P09866, Q3290N); assay type: binding; conditions: 50 µM compound; for Protein melting temperature, Tm, DENV4 FL NS5 Q802N: DMSO 37
T2 construct: made in house
T2 sequence (P09866 2488-3387 Q3290N): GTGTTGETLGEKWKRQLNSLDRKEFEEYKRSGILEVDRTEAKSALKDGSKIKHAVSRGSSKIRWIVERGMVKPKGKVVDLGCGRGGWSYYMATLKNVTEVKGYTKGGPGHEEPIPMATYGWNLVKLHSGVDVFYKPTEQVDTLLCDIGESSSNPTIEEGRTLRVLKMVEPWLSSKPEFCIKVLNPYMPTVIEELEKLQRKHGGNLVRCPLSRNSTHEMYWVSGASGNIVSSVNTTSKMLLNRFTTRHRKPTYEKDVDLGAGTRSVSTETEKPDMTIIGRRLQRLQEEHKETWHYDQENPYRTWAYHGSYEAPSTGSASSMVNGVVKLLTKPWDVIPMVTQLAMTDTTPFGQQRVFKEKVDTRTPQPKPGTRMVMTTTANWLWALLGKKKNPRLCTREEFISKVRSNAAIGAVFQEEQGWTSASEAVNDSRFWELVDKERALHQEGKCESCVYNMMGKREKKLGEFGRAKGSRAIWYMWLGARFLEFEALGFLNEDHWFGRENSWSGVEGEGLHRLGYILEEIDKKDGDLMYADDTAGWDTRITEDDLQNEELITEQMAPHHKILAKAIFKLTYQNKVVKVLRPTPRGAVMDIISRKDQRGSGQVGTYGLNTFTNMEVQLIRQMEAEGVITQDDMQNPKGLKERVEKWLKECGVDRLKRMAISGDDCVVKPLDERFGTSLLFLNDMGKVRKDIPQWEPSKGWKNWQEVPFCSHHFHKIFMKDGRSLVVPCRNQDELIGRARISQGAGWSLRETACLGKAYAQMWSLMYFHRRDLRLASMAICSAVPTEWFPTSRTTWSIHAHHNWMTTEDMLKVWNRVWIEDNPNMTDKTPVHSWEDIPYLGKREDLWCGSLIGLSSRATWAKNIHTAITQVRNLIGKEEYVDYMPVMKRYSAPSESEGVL

[9] = test system: DENV2-NGC replicon Wild Type; assay: Transient WT DENV2-NGC replicon in BHK-21 cells; conditions: Dengue virus, DENV2, BHK-21, 48 h, read-out: EC50, DENV2-NGC Replicon, Wild Type
Experimental: as §1, §2, §3, §4, §5, §6, §7, §8, §9, §10, §11, §12, §13

[10] = test system: Control DENV2-NGC EGFP-replicon cells passaged in DMSO; assay: Control DENV2-NGC EGFP-replicon cells passaged in DMSO; assay type: cell-based; conditions: Dengue virus, DENV2, 48 h; 2 days

Structure (SMILES) | EC50 [1] | EC50 [2] | Tm change compared to DMSO control, DENV2 FL NS5 WT [3] | Protein melting temperature, Tm, DENV2 FL NS5 WT [3] | EC50 [4] | Protein melting temperature Tm with compound, RdRp domain [5] | EC50 [6] | activity in WNV replicon cell-based assay [7] | Tm change compared to DMSO control, DENV4 FL NS5 Q802N [8] | Protein melting temperature, Tm, DENV4 FL NS5 Q802N [8] | EC50 [9] | EC50 [10]
COc1cccc(S(=O)(=O)NC(=O)c2cc(-c3ccc(C#CCO)s3)c(OC)cc2OC)c1 [Compound 27] | 2.3 µM | 1.8 ± 0.2 µM | 1.5 °C | 37 °C | 3.5 µM | 58 °C | > 25 µM | inactive | 0.5 °C | 37.5 °C | 7.83 µM | 2.46 µM
COc1cc(OC)c(-c2ccc(C#CCO)s2)cc1C(=O)NS(=O)(=O)c1cccc2cccnc12 [Compound 29] | 14.1 µM | 10.2 µM | 4.5 °C | 40 °C | 5.8 µM | 64 °C | > 25 µM | inactive | 1.5 °C | 38.5 °C | 6.7 µM | 3.55 µM
